Test results reported in PMC10999986, “Substrate specificity of a ketosynthase domain involved in bacillaene biosynthesis” (Beilstein Journal of Organic Chemistry, 2024).

How the values were obtained:
[1] = target: T1, BaeJ-KS2 (Bacillus amyloliquefaciens, UniProt Q1RS73); assay: […] NMR of protein after incubation and ultrafiltration buffer exchange; format: binding; conditions: 25 °C, 30 min; labelled compound; active-site Cys replaced
T1 construct: excised second ketosynthase domain (KS2, module 4) of BaeJ, His-tagged, heterologously expressed, Ni-NTA purified

[2] = target: T1, BaeJ-KS2; assay: […] NMR of protein after incubation and ultrafiltration buffer exchange; proteinase K digest; conditions: 25 °C, 30 min; labelled compound; covalent binding to active-site Cys proposed

T1 sequence (Q1RS73 entry or part of it): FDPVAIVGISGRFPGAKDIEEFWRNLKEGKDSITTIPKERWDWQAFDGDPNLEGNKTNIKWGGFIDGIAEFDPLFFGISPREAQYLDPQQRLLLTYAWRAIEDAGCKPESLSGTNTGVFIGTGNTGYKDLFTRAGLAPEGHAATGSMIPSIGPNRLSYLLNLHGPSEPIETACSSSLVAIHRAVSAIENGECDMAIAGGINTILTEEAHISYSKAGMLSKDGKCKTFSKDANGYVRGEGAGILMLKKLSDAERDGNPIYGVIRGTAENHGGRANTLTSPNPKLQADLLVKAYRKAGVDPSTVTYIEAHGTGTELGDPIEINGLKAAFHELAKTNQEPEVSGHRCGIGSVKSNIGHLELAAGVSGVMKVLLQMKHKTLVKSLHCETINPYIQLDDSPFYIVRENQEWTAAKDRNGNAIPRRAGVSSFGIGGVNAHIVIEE

SMILES | thioester carbonyl 13C NMR signal [1] | 13C NMR of protein after incubation and ultrafiltration buffer exchange; protein [2]
CC(=O)NCCSC(=O)CCCNC(=O)[C@H](O)CC(C)C [(R)-11] | (R)-11 is not bound to BaeJ-KS2-C222A after incubation and buffer exchange | This observation supports binding of both substrate surrogates to BaeJ-KS2
CC(=O)NCCSC(=O)CCCNC(=O)[C@@H](O)CC(C)C [(S)-11] | No signal corresponding to a thioester carbonyl group was detected in the protein preparations | for both samples obtained from the incubations with (S)-11 and (R)-11 signals were detected
